Our source for the EC50 values is patent US9663473B2 (Actelion Pharmaceuticals Ltd, priority 2013, dated 2017).

Counter-ions that a name gives are not always drawn.

The term EC50 denotes the midpoint of the concentration-response curve.

For this assay, the target named is T1, recombinant human ALX receptor (Homo sapiens, UniProt P25090).
T1 construct: expressed in transfected cells; host or cells: HEK293 (HEK293-hALXR-Gα16)
T1 sequence (P25090 1-351): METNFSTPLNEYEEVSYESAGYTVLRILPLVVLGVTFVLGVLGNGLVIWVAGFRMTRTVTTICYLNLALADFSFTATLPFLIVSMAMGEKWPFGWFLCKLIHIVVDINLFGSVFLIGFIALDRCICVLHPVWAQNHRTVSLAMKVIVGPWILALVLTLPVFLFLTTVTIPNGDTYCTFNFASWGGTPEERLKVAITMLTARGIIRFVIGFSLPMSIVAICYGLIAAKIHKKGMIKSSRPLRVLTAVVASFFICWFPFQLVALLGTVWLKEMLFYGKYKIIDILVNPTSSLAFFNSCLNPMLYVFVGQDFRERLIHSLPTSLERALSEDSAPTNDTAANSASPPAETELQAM
Put plainly: Intracellular calcium measurements (FLIPR), ALX receptor agonistic activity. It is filed as cell-based. The note with it: HEK293-hALXR-Gα16 cells, Fluo-4 calcium signal, normalized to WKYMVm 10 nM. How it is done:
The ALX receptor agonistic activity of the compounds of formula (I) is determined in accordance with the following experimental method.
Intracellular Calcium Measurements:
Cells expressing recombinant human ALX receptor and the G-protein Gα16 (HEK293-hALXR-Gα16) were grown to 80% confluency in Growing Medium (GM). Cells were detached from culture dishes with a cell dissociation buffer (Invitrogen, 13151-014), and collected by centrifugation at 1′000 rpm at rt for 5 min in Assay Buffer (AB) (equal parts of Hank's BSS (Gibco, 14065-049) and DMEM without Phenol Red (Gibco, 11880-028)). After 60 min incubation at 37° C. under 5% CO2 in AB supplemented with 1 μM Fluo-4 (AM) (Invitrogen, F14202) and 20 mM HEPES (Gibco, 15630-056), the cells were washed and resuspended in AB. They were then seeded onto 384-well FLIPR assay plates (Greiner, 781091) at 50′000 cells in 70 μl per well and sedimented by centrifugation at 1′000 rpm for 1 min. Stock solutions of test compounds were made up at a concentration of 10 mM in DMSO, and serially diluted in AB to concentrations required for activation dose response curves. WKYMVm (Phoenix Peptides) was used as a reference agonist. A FLIPR Tetra instrument (Molecular Devices) was operated according to the manufacturer's standard instructions, adding 4 μl of test compound dissolved at 10 mM in DMSO and diluted prior to the experiment in assay buffer to obtain the desired final concentration. Changes in fluorescence were monitored before and after the addition of test compounds at lex=488 nm and lem=540 nm. Emission peak values above base level after compounds addition were exported after base line subtraction. Values were normalized to high-level control (WKYMVm compound, 10 nM final concentration) after subtraction of the base line value (AB addition).
For orientation: A change in cytosolic calcium serves as a functional read-out for many receptors and channels.
For the compound `O=C(NC(Cc1ccc(Br)cc1)c1nc2cc(Cl)ccc2[nH]1)N[C@H]1CC[C@H](O)CC1` (relative stereo) [Example 81, 1-(2-(4-Bromophenyl)-1-(5-chloro-1H-benzo[d]imidazol-2-yl)ethyl)-3-(trans-4-hydroxycyclohexyl)urea], the concentration giving a half-maximal response (EC50) was 1.4 nM.

Take `COc1ccc(CC(NC(=O)Nc2ccnn2Cc2ccccc2)c2nc3ccccc3[nH]2)cc1` (centres unmarked) [Example 415, 1-(1-(1H-benzo[d]imidazol-2-yl)-2-(4-methoxyphenyl)ethyl)-3-(1-benzyl-1H-pyrazol-5-yl)urea]: the 50% effective concentration (EC50) was 101 nM.

Consider `O=C(NC(Cc1ccc(C(F)(F)F)cc1F)c1nc2ccccc2[nH]1)N[C@H]1CC[C@H](O)CC1` (single isomer, unassigned; ent-2) [Example 359, 1-(1-(1H-Benzo[d]imidazol-2-yl)-2-(2-fluoro-4-(trifluoromethyl)phenyl)ethyl)-3-(trans-4-hydroxycyclohexyl)urea (ent-2)], for which the EC50 came out at 19 nM.

`CCOc1ccc(CC(NC(=O)N[C@H]2CC[C@H](O)CC2)c2nc3ccccc3[nH]2)cc1` (relative stereo) [Example 77, 1-(1-(1H-Benzo[d]imidazol-2-yl)-2-(4-ethoxyphenyl)ethyl)-3-(trans-4-hydroxycyclohexyl)urea]: the EC50 came to 203 nM.

Regarding `COc1ccc(C[C@@H](NC(=O)NCc2ccccc2CN2CCOCC2)c2nc3ccccc3[nH]2)cc1` [Example 62, (R)-1-(1-(1H-Benzo[d]imidazol-2-yl)-2-(4-methoxyphenyl)ethyl)-3-(2-(morpholinomethyl)benzyl)urea dihydrochloride], the concentration giving a half-maximal response (EC50) was 48 nM.

As for `COc1ccc(C[C@@H](NC(=O)N[C@H]2CC[C@H](C(=O)O)CC2)c2nc3ccccc3[nH]2)cc1` [Example 225, trans-4-(3-((R)-1-(1H-Benzo[d]imidazol-2-yl)-2-(4-methoxyphenyl)ethyl)ureido)cyclohexanecarboxylic acid, lithium salt], the 50% effective concentration (EC50) turned out to be 48 nM.

Consider `COc1ccc(C[C@@H](NC(=O)NC2COCc3ccccc32)c2nc3ccccc3[nH]2)cc1` (stereo partly drawn) [Example 218, 1-((R)-1-(1H-Benzo[d]imidazol-2-yl)-2-(4-methoxyphenyl)ethyl)-3-(isochroman-4-yl)urea], for which the EC50 is 34 nM.

On to `COc1ccc(CC(NC(=O)Nc2cc(-c3ccc(OC)cc3)n[nH]2)c2nc3ccccc3[nH]2)cc1` (centres unmarked) [Example 404, 1-(1-(1H-benzo[d]imidazol-2-yl)-2-(4-methoxyphenyl)ethyl)-3-(3-(4-methoxyphenyl)-1H-pyrazol-5-yl)urea], for which the EC50 came to 158 nM.

`COc1ccc(CC(NC(=O)NC2CC(C)(C)NC(C)(C)C2)c2nc3ccccc3[nH]2)cc1F` (centres unmarked) [Example 176, 1-(1-(1H-Benzo[d]imidazol-2-yl)-2-(3-fluoro-4-methoxyphenyl)ethyl)-3-(2,2,6,6-tetramethylpiperidin-4-yl)urea]: the EC50 turned out to be 58 nM.

Take `COc1ccc(C[C@@H](NC(=O)N[C@H]2CC[C@H](O)CC2)c2nc3c(F)cccc3[nH]2)cc1` [Example 124, 1-((R)-1-(4-Fluoro-1H-benzo[d]imidazol-2-yl)-2-(4-methoxyphenyl)ethyl)-3-(trans-4-hydroxycyclohexyl)urea]: the concentration for a half-maximal effect (EC50) came out at 174 nM.

As for `COc1ccc(C[C@@H](NC(=O)NCCc2ccc(OC)cn2)c2nc3ccccc3[nH]2)cc1` [Example 296, (R)-1-(1-(1H-Benzo[d]imidazol-2-yl)-2-(4-methoxyphenyl)ethyl)-3-(2-(5-methoxypyridin-2-yl)ethyl)urea], the 50% effective concentration (EC50) amounted to 227 nM.

`COc1ccc(C[C@@H](NC(=O)NCc2ccnn2-c2ccc(OC)cc2)c2nc3ccccc3[nH]2)cc1` [Example 294, (R)-1-(1-(1H-Benzo[d]imidazol-2-yl)-2-(4-methoxyphenyl)ethyl)-3-((1-(4-methoxyphenyl)-1H-pyrazol-5-yl)methyl)urea]: the EC50 came out at 7.6 nM.

For the compound `COc1ccc(C[C@@H](NC(=O)N[C@H](C)c2ccc(Br)cc2)c2nc3ccccc3[nH]2)cc1` [Example 322, 1-((R)-1-(1H-Benzo[d]imidazol-2-yl)-2-(4-methoxyphenyl)ethyl)-3-((R)-1-(4-bromophenyl)ethyl)urea], the EC50 came to 585 nM.

Consider `COc1ccc(C[C@@H](NC(=O)NCC2COc3cnccc32)c2nc3ccccc3[nH]2)cc1` (stereo partly drawn) [Example 282, 1-((R)-1-(1H-Benzo[d]imidazol-2-yl)-2-(4-methoxyphenyl)ethyl)-3-((2,3-dihydrofuro[2,3-c]pyridin-3-yl)methyl)urea], for which the EC50 amounted to 351 nM.

With `COc1ccc(C[C@@H](NC(=O)NC2CCN(CCc3ccccc3)CC2)c2nc3ccccc3[nH]2)cc1` [Example 105, (R)-1-(1-(1H-Benzo[d]imidazol-2-yl)-2-(4-methoxyphenyl)ethyl)-3-(1-phenethylpiperidin-4-yl)urea], the EC50 was determined as 14 nM.

For `O=C(NC(Cc1ccc(Br)cc1F)c1nc2ccccc2[nH]1)N[C@H]1CC[C@H](O)CC1` (single isomer, unassigned; ent-1) [Example 313, 1-(1-(1H-Benzo[d]imidazol-2-yl)-2-(4-bromo-2-fluorophenyl)ethyl)-3-(trans-4-hydroxycyclohexyl)urea (ent-1)], the 50% effective concentration (EC50) is 2.4 nM.

With `COc1ccc(CC(NC(=O)Nc2ccnn2C)c2nc3ccccc3[nH]2)cc1` (centres unmarked) [Example 418, 1-(1-(1H-benzo[d]imidazol-2-yl)-2-(4-methoxyphenyl)ethyl)-3-(1-methyl-1H-pyrazol-5-yl)urea], the EC50 worked out at 210 nM.

With `CCn1ccc(C(C)NC(=O)N[C@H](Cc2ccc(OC)cc2)c2nc3ccccc3[nH]2)n1` (stereo partly drawn) [Example 289, 1-((R)-1-(1H-Benzo[d]imidazol-2-yl)-2-(4-methoxyphenyl)ethyl)-3-(1-(1-ethyl-1H-pyrazol-3-yl)ethyl)urea], the 50% effective concentration (EC50) was 59 nM.

With `COc1ccc(C[C@@H](NC(=O)N2CC3CCC2CN3C)c2nc3ccccc3[nH]2)cc1` (stereo partly drawn) [Example 168, N—((R)-1-(1H-Benzo[d]imidazol-2-yl)-2-(4-methoxyphenyl)ethyl)-5-methyl-2,5-diazabicyclo[2.2.2]octane-2-carboxamide], the EC50 was found to be 87 nM.

On to `COc1cc(F)c(CC(NC(=O)N[C@H]2CC[C@H](O)CC2)c2nc3ccccc3[nH]2)cc1F` (single isomer, unassigned; ent-1) [Example 356, 1-(1-(1H-Benzo[d]imidazol-2-yl)-2-(2,5-difluoro-4-methoxyphenyl)ethyl)-3-(trans-4-hydroxycyclohexyl)urea (ent-1)], for which the concentration for a half-maximal effect (EC50) is 5.5 nM.

For `COc1ccc(C[C@@H](NC(=O)NCCN2CCNCC2)c2nc3ccccc3[nH]2)cc1` [Example 150, (R)-1-(1-(1H-Benzo[d]imidazol-2-yl)-2-(4-methoxyphenyl)ethyl)-3-(2-(piperazin-1-yl)ethyl)urea], the EC50 stood at 209 nM.

For the compound `COc1ccc(C[C@@H](NC(=O)NCc2ccccc2COC(C)C)c2nc3ccccc3[nH]2)cc1` [Example 58, (R)-1-(1-(1H-Benzo[d]imidazol-2-yl)-2-(4-methoxyphenyl)ethyl)-3-(2-(isopropoxymethyl)benzyl)urea], the half-maximal effective concentration (EC50) came to 23 nM.

Take `COc1ccc(C[C@@H](NC(=O)N[C@H]2CC[C@H](O)CC2)c2nc3cc(OC)ccc3[nH]2)cc1` [Example 84, 1-(trans-4-Hydroxycyclohexyl)-3-((R)-1-(5-methoxy-1H-benzo[d]imidazol-2-yl)-2-(4-methoxyphenyl)ethyl)urea]: the concentration giving a half-maximal response (EC50) came to 11 nM.
